Assay [1] in a line: Taste characteristics in an aqueous solution (9 items, similarity index vs aqueous 10% sucrose solution). In kind it is in vivo, human. The conditions noted are these: PSE 10%, smaller = closer to sucrose, 8 panelists. As to the method:
The following experiments were performed using the water obtained by ion exchanging and further distilling the water.
An aqueous solution of each of derivatives 1 to 9 having a sweetness level equivalent to that of PSE 10% was prepared, and compared with aqueous 10% sucrose solution with respect to the following 9 items, i.e., “onset of the taste”, “round taste”, “clear taste”, “lingering taste”, “peculiar taste”, “heavy taste”, “bitter taste”, “astringent taste” and “irritation”. The results were determined as 5 levels (−2 point: very weak, −1 point: a little weak, 0 point: same, +1 point: a little strong, +2 point: very strong) by 8 panelists, and the average points were calculated. The sample solutions of the derivatives equivalent to PSE 10%, were prepared by using the magnification of sweetness intensity measured in Example 1, and the amounts of each derivatives to be used were as follows.
Next, the total of the absolute value of the deviation from sucrose in each of the evaluation items consisting of the onset of the taste, the round taste, the clear taste, the lingering taste, the peculiar taste, the heavy taste, the bitter taste, the astringent taste and the irritation was divided by 9 (total number of items) to calculate the similarity (which is referred to as “similarity index”). The smaller the similarity index becomes, the better the taste balances, and the closer the taste is to the taste characteristics (quality) of sucrose. The total taste becomes preferable. The similarity indexes of each derivatives are shown as follows.
To the aqueous solution of derivative 1 having a sweetness level equivalent to that of PSE 10%, salt was added as final concentratins of 0.1%, 0.2% and 0.5% to compare with the aqueous solution of 10% sucrose for by 2 points comparison method (n=8) and evaluate the characteristics of the taste.
The sensory evaluation was performed by the same way as Example 6.
The following experiments were conducted using the water obtained by ion exchanging and further distilling tap water.
An aqueous solution of each of derivatives 1 to 9 having a sweetness level equivalent to that of PES 10% was prepared, and compared with aqueous 10% sucrose solution with respect to 9 items, namely, “the onset of the taste”, “round taste”, “clear taste”, “lingering taste”, “peculiar taste”, “heavy taste”, “bitter taste”, “astringent taste” and “irritation”. The results were determined as 5 levels (−2 point: very weak, −1 point: a little weak, 0 point: same, +1 point: a little strong, +2 point: very strong) by 8 panelists, and the average points were calculated.
Next, the total of the absolute value of the deviation from sucrose in each of the evaluation items consisting of onset of the taste, round taste, clear taste, lingering taste, peculiar taste, heavy taste, bitter taste, astringent taste and irritation was divided by 9 (total number of items) to calculate the similarity (which is refer to as “similarity index”). The smaller the similarity index becomes, the better the taste balances, and the closer the taste is to the taste characteristics (quality) of sucrose. The total taste becomes preferable. The similarity indexes of each of the derivatives are shown as follows.

Assay [2] in a line: Measurement of the magnification of sweetness intensity in aqueous solution (sensory evaluation against sucrose solutions). The conditions noted are these: for Amount equivalent to PSE 10% / intensity of sweetness, times that of sucrose (magnification of sweetness intensity): aqueous solution; for intensity of sweetness, times that of sucrose (magnification of sweetness intensity): about PSE 10%. In kind it is in vivo, human. As to the method:
An aqueous solution was prepared by diluting derivative 2 to be PSE 10% concentration (15.5 mg/1000 ml=10/6500 g/100 ml), assuming that the intensity of sweetness of derivative 2 was 6500 times that of sucrose. Separately, aqueous sucrose solutions having sucrose concentrations of (a)6.94%, (b)8.33%, (c)10%, (d)12%, and (e)14.4% were prepared. The sensory evaluation was performed by determining which sucrose solution was closest to the solution of derivative 2 in the sweetness intensity. The result of calculation of the average of points of 20 panelists was 2.25 point.
The intensity of sweetness of the solution of derivative 2 was 8.75% according to the following equation: (10.0−8.33)×0.25+8.33=8.75. Accordingly, the intense sweetness of derivative 2 was 5600 (=8.75/0.00155) times that of sucrose. According to the same experiment, the intensity of sweetness of derivative 1 was 22600 times that of sucrose. Furthermore, the magnification of sweetness intensity of other derivatives (3 to 9) can be determined by the same method.
The intensity of sweetness of the solution of derivative 2 was 8.75% according to the following equation: (10.0−8.33)×0.25+8.33=8.75. Accordingly, the intensity of sweetness of derivative 2 was 5600 (=8.75/0.00155) times that of sucrose. According to the same experiment, the intensity of sweetness of derivative 1 was 22600 times that of sucrose. Furthermore, the magnification of sweetness intensity of other derivatives (3 to 9) can be determined by the same method.
An aqueous solution was prepared by diluting derivative 2 to be PSE 10% concentration (15.5 mg/1000 ml=10/6500 g/100 ml), assuming that the intense sweetness of derivative 2 was 6500 times that of sucrose. Separately, aqueous sucrose solutions having sucrose concentrations of (a)6.94%, (b)8.33%, (c)10%, (d)12%, and (e)14.4% were prepared. The sensory evaluation was performed by determining which sucrose solution was closest to the solution of derivative 2 in the sweetness intensity. The result of calculation of the average of points of 20 panelists was 2.25 point.
The sweetness intensity of the solution of derivative 2 was 8.75% according to the following equation: (10.0−8.33)×0.25+8.33=8.75. Therefore, the magnification of sweetness intensity of derivative 2 was 5600 (=8.75/0.00155) times that of sucrose. When the same experiment was performed, the magnification of sweetness intensity of derivative 1 was 22600 times that of sucrose.

The structures appear in SMILES notation.

Regarding `COC(=O)[C@H](Cc1ccccc1)NC(=O)[C@H](CC(=O)O)NCCCc1ccc(OC)c(O)c1` [Derivative 1, N-[N-[3-(3-hydroxy-4-methoxyphenyl)propyl] -L-α-aspartyl]-L-phenylalanine 1-methyl ester], the Similarity index in assay [1] amounted to 1.17. In assay [2], the “Amount equivalent to PSE 10%” value came out at 4.5 mg/1000 ml and the “intensity of sweetness, times that of sucrose (magnification of sweetness intensity)” value is recorded as 22600 times.
Take `COC(=O)[C@H](Cc1ccccc1)NC(=O)[C@H](CC(=O)O)NCCCc1ccc(OC)cc1` [Derivative 2, N-[N-[3-(4-methoxyphenyl)propyl]-L-α-aspartyl]-L-phenylalanine 1-methyl ester]: in assay [1], the Similarity index is given as 0.63. In assay [2], the “Amount equivalent to PSE 10%” value is recorded as 17.9 mg/1000 ml and the “intensity of sweetness, times that of sucrose (magnification of sweetness intensity)” value amounted to 5600 times. Further, in assay [2] (aqueous solution 15.5 mg/1000 ml, sucrose-equivalent concentration), the “intensity of sweetness of the solution” value was found to be 8.75%. Further, the “average of points of 20 panelists” value in assay [2] (derivative 2 aqueous solution 15.5 mg/1000 ml, closest of sucrose solutions (a)6.94% to (e)14.4%) is given as 2.25 point.
`COC(=O)[C@H](Cc1ccccc1)NC(=O)[C@H](CC(=O)O)NCCC(C)(C)c1ccc(O)c(C)c1` [Derivative 4, N-[N-[3-(3-methyl-4-hydroxyphenyl)-3-methylbutyl]-L-α-aspartyl]-L-phenylalanine 1-methyl ester] displayed a Similarity index in assay [1] of 0.93. Further, in assay [2], the “Amount equivalent to PSE 10%” value is 2.3 mg/1000 ml.
On to `COC(=O)[C@H](Cc1ccccc1)NC(=O)[C@H](CC(=O)O)NCCC(C)(C)c1ccc(O)cc1` [Derivative 6, N-[N-[3-(4-hydroxyphenyl)-3-methylbutyl]-L-α-aspartyl]-L-phenylalanine 1-methyl ester], for which the Similarity index in assay [1] stood at 0.93. In addition, the “Amount equivalent to PSE 10%” value in assay [2] turned out to be 6.7 mg/1000 ml.
Taken in the same sequence, the figures for `COC(=O)[C@H](Cc1ccccc1)NC(=O)[C@H](CC(=O)O)NCCCc1ccc(O)c(C)c1` [Derivative 8, N-[N-[3-(3-methyl-4-hydroxyphenyl)propyl]-L-α-aspartyl]-L-phenylalanine 1-methyl ester] were 0.77 and 5.5 mg/1000 ml.

Values taken from patent US20030059511A1, “Sweetener compositions and uses thereof” (AJINOMOTO CO., INC., priority 1999, published 2003).
